# Measured values published in US10456407B2, “Combination therapy for treating cancer” (Epizyme, Inc., priority 2015, dated 2019).
# What was measured:
# Type in all cases: cell-based
# RL cells = assay: RT2 Glucocorticoid signaling PCR array, RL (Table 4e, printed RI) cell line; conditions: 4 days, Cpd44 1 uM, Pred 10-fold below 4-day IC50, vs DMSO, B2M-normalized
# From the text: (§1) Expression levels of (A). Sestrin; (B). TNF and (C) GILZ normalized to DMSO controls for each cell line with the indicated single agent or combination.
# SU-DHL4 cells [1] = assay: RT2 Glucocorticoid signaling PCR array, SU-DHL4 (SUDHL4) cell line (Table 4f); conditions: SUDHL4, 4 days, vs DMSO
# SU-DHL4 cells [2] = assay: as above; conditions: SUDHL4, 4 days, vs DMSO; remark: listed apart in the source
# From the text: as §1
structure (smiles),measurement,setting,value
CCN(c1cc(-c2ccc(CN3CCOCC3)cc2)cc(C(=O)NCc2c(C)cc(C)[nH]c2=O)c1C)C1CCOCC1 [Compound 44],ΔΔCT,RL cells; AMPD3 mRNA,−0.885
same,ΔΔCT,RL cells; ASPH mRNA,0.476
same,ΔΔCT,RL cells; BCL6 mRNA,0.263
same,ΔΔCT,RL cells; FOSL2 mRNA,−1.274
same,ΔΔCT,RL cells; TSC22D3 mRNA,0.189
same,ΔΔCT,RL cells; ZFP36 mRNA,−0.036
same,ΔΔCT MERTK,SU-DHL4 cells [1],1.977
same,"ΔΔCT, ADARB1",SU-DHL4 cells [1],−1.229
same,"ΔΔCT, AFF1",SU-DHL4 cells [1],−0.276
same,"ΔΔCT, AMPD3",SU-DHL4 cells [1],−1.449
same,"ΔΔCT, ANGPTL4",SU-DHL4 cells [1],−1.331
same,"ΔΔCT, ANXA4",SU-DHL4 cells [1],−2.419
same,"ΔΔCT, AQP1",SU-DHL4 cells [1],0.331
same,"ΔΔCT, ARID68",SU-DHL4 cells [1],−0.541
same,"ΔΔCT, ASPH",SU-DHL4 cells [1],−0.843
same,"ΔΔCT, ATF4",SU-DHL4 cells [1],0.146
same,"ΔΔCT, CEBPA",SU-DHL4 cells [1],−2.510
same,"ΔΔCT, CREB1",SU-DHL4 cells [1],−0.313
same,"ΔΔCT, CREB3",SU-DHL4 cells [1],−0.490
same,"ΔΔCT, CREB3L4",SU-DHL4 cells [1],−0.655
same,"ΔΔCT, CYB561",SU-DHL4 cells [1],−4.236
same,"ΔΔCT, EHD3",SU-DHL4 cells [1],−1.998
same,"ΔΔCT, FK8PS",SU-DHL4 cells [1],0.008
same,"ΔΔCT, GDPD1",SU-DHL4 cells [1],−1.356
same,"ΔΔCT, GOT1",SU-DHL4 cells [1],0.065
same,"ΔΔCT, H6PD",SU-DHL4 cells [1],−0.549
same,"ΔΔCT, HNRPLL",SU-DHL4 cells [1],−0.471
same,"ΔΔCT, IL6R",SU-DHL4 cells [1],−1.903
same,"ΔΔCT, IL10",SU-DHL4 cells [1],−1.895
same,"ΔΔCT, KLF9",SU-DHL4 cells [1],−1.293
same,"ΔΔCT, KLF13",SU-DHL4 cells [1],−0.534
same,"ΔΔCT, MT2A",SU-DHL4 cells [1],−0.309
same,"ΔΔCT, NR3C1",SU-DHL4 cells [1],−0.234
same,"ΔΔCT, PDCD7",SU-DHL4 cells [1],−0.127
same,"ΔΔCT, PER1",SU-DHL4 cells [1],−0.524
same,"ΔΔCT, PER2",SU-DHL4 cells [1],−0.854
same,"ΔΔCT, PIK3R1",SU-DHL4 cells [1],−0.502
same,"ΔΔCT, PLEKHF1",SU-DHL4 cells [1],−1.254
same,"ΔΔCT, POU2F1",SU-DHL4 cells [1],−0.575
same,"ΔΔCT, RGS2",SU-DHL4 cells [1],−0.632
same,"ΔΔCT, RHOB",SU-DHL4 cells [1],−1.561
same,"ΔΔCT, SESN1",SU-DHL4 cells [1],−2.258
same,"ΔΔCT, SLC10A6",SU-DHL4 cells [1],−4.180
same,"ΔΔCT, SLC19A2",SU-DHL4 cells [1],−1.612
same,"ΔΔCT, SLC22A5",SU-DHL4 cells [1],−0.775
same,"ΔΔCT, SNTA1",SU-DHL4 cells [1],−0.847
same,"ΔΔCT, SPSB1",SU-DHL4 cells [1],−0.624
same,"ΔΔCT, STAT5B",SU-DHL4 cells [1],−0.298
same,"ΔΔCT, TBL1XR1",SU-DHL4 cells [1],−0.456
same,"ΔΔCT, TNFAIP3",SU-DHL4 cells [1],0.339
same,"ΔΔCT, TSC22D3",SU-DHL4 cells [1],−0.002
same,"ΔΔCT, USP2",SU-DHL4 cells [1],−0.688
same,"ΔΔCT, USPS4",SU-DHL4 cells [1],6.193
same,"ΔΔCT, ZFP36",SU-DHL4 cells [1],−0.262
same,"ΔΔCT, ZHX3",SU-DHL4 cells [1],−1.047
same,"ΔΔCT, BCL6",SU-DHL4 cells [2],−1.019
same,"ΔΔCT, CEBPB",SU-DHL4 cells [2],0.776
same,"ΔΔCT, DDIT4",SU-DHL4 cells [2],−1.317
same,"ΔΔCT, DUSP1",SU-DHL4 cells [2],−0.449
same,"ΔΔCT, NFKBIA",SU-DHL4 cells [2],−0.388
same,"ΔΔCT, PDP1",SU-DHL4 cells [2],−0.911
same,"ΔΔCT, POU2F2",SU-DHL4 cells [2],−0.539
same,"ΔΔCT, RASA3",SU-DHL4 cells [2],−0.731
same,"ΔΔCT, SPHK1",SU-DHL4 cells [2],−1.066
same,"ΔΔCT, STAT5A",SU-DHL4 cells [2],−0.587
same,"ΔΔCT, TNF",SU-DHL4 cells [2],−2.458
same,"ΔΔCT, VDR",SU-DHL4 cells [2],−2.155
same,"ΔΔCT, VLDLR",SU-DHL4 cells [2],0.438
same,"ΔΔCT, ZNF281",SU-DHL4 cells [2],−0.612
"C[C@]12C=CC(=O)C=C1CC[C@@H]1[C@@H]2[C@@H](O)C[C@@]2(C)[C@H]1CC[C@]2(O)C(=O)CO [Prednisolone, prednisolone]",ΔΔCT,RL cells; ATF4 mRNA,1.364
same,ΔΔCT,RL cells; CREB3 mRNA,0.762
same,ΔΔCT,RL cells; CYB561 mRNA,−1.663
same,ΔΔCT,RL cells; PIK3R1 mRNA,0.974
same,ΔΔCT,RL cells; POU2F1 mRNA,1.130
same,ΔΔCT,RL cells; SESN1 mRNA,−4.062
same,ΔΔCT,RL cells; SLC19A2 mRNA,0.047
same,ΔΔCT,RL cells; ZHX3 mRNA,0.168
same,"ΔΔCT, ADARB1",SU-DHL4 cells [1],−0.516
same,"ΔΔCT, AFF1",SU-DHL4 cells [1],−0.429
same,"ΔΔCT, AK2",SU-DHL4 cells [1],−1.076
same,"ΔΔCT, AMPD3",SU-DHL4 cells [1],−0.891
same,"ΔΔCT, ANGPTL4",SU-DHL4 cells [1],−1.047
same,"ΔΔCT, ANXA4",SU-DHL4 cells [1],−0.890
same,"ΔΔCT, ARID68",SU-DHL4 cells [1],−0.131
same,"ΔΔCT, ASPH",SU-DHL4 cells [1],−0.451
same,"ΔΔCT, ATF4",SU-DHL4 cells [1],−0.279
same,"ΔΔCT, CEBPA",SU-DHL4 cells [1],−0.301
same,"ΔΔCT, CREB1",SU-DHL4 cells [1],−0.548
same,"ΔΔCT, CREB3",SU-DHL4 cells [1],−0.560
same,"ΔΔCT, CREB3L4",SU-DHL4 cells [1],−0.199
same,"ΔΔCT, CYB561",SU-DHL4 cells [1],−0.720
same,"ΔΔCT, EHD3",SU-DHL4 cells [1],−1.325
same,"ΔΔCT, FK8PS",SU-DHL4 cells [1],−1.582
same,"ΔΔCT, GDPD1",SU-DHL4 cells [1],−0.409
same,"ΔΔCT, GHRHR",SU-DHL4 cells [1],0.184
same,"ΔΔCT, GOT1",SU-DHL4 cells [1],−0.402
same,"ΔΔCT, H6PD",SU-DHL4 cells [1],0.160
same,"ΔΔCT, HNRPLL",SU-DHL4 cells [1],−0.286
same,"ΔΔCT, IL6R",SU-DHL4 cells [1],−0.524
same,"ΔΔCT, IL10",SU-DHL4 cells [1],−0.130
same,"ΔΔCT, KLF9",SU-DHL4 cells [1],−0.821
same,"ΔΔCT, KLF13",SU-DHL4 cells [1],−0.934
same,"ΔΔCT, MT2A",SU-DHL4 cells [1],0.129
same,"ΔΔCT, NR3C1",SU-DHL4 cells [1],−0.427
same,"ΔΔCT, PDCD7",SU-DHL4 cells [1],0.403
same,"ΔΔCT, PER1",SU-DHL4 cells [1],−0.786
same,"ΔΔCT, PER2",SU-DHL4 cells [1],−1.101
same,"ΔΔCT, PIK3R1",SU-DHL4 cells [1],−0.892
same,"ΔΔCT, PLEKHF1",SU-DHL4 cells [1],−1.285
same,"ΔΔCT, POU2F1",SU-DHL4 cells [1],−0.432
same,"ΔΔCT, RGS2",SU-DHL4 cells [1],−0.372
same,"ΔΔCT, RHOB",SU-DHL4 cells [1],0.724
same,"ΔΔCT, SGK1",SU-DHL4 cells [1],−0.346
same,"ΔΔCT, SLC10A6",SU-DHL4 cells [1],−3.874
same,"ΔΔCT, SLC19A2",SU-DHL4 cells [1],−0.995
same,"ΔΔCT, SLC22A5",SU-DHL4 cells [1],−0.171
same,"ΔΔCT, SNTA1",SU-DHL4 cells [1],−0.687
same,"ΔΔCT, SPSB1",SU-DHL4 cells [1],0.068
same,"ΔΔCT, STAT5B",SU-DHL4 cells [1],−0.268
same,"ΔΔCT, TBL1XR1",SU-DHL4 cells [1],−0.721
same,"ΔΔCT, TNFAIP3",SU-DHL4 cells [1],0.835
same,"ΔΔCT, TSC22D3",SU-DHL4 cells [1],−2.169
same,"ΔΔCT, USP2",SU-DHL4 cells [1],−1.681
same,"ΔΔCT, USPS4",SU-DHL4 cells [1],−1.060
same,"ΔΔCT, ZFP36",SU-DHL4 cells [1],−0.541
same,"ΔΔCT, ZHX3",SU-DHL4 cells [1],−0.868
same,"ΔΔCT, BCL6",SU-DHL4 cells [2],−0.793
same,"ΔΔCT, CEBPB",SU-DHL4 cells [2],0.528
same,"ΔΔCT, DDIT4",SU-DHL4 cells [2],−1.931
same,"ΔΔCT, DUSP1",SU-DHL4 cells [2],−1.093
same,"ΔΔCT, NFKBIA",SU-DHL4 cells [2],−0.710
same,"ΔΔCT, PDP1",SU-DHL4 cells [2],−0.521
same,"ΔΔCT, POU2F2",SU-DHL4 cells [2],−0.675
same,"ΔΔCT, RASA3",SU-DHL4 cells [2],−0.723
same,"ΔΔCT, SPHK1",SU-DHL4 cells [2],0.331
same,"ΔΔCT, STAT5A",SU-DHL4 cells [2],−0.389
same,"ΔΔCT, TNF",SU-DHL4 cells [2],−2.845
same,"ΔΔCT, VDR",SU-DHL4 cells [2],−0.996
same,"ΔΔCT, VLDLR",SU-DHL4 cells [2],1.191
same,"ΔΔCT, ZNF281",SU-DHL4 cells [2],−0.739
